Laboratory results from paper PMC6161059 (ACS Central Science, 2018).

Tests used:
β2AR(1.19H4) = β2AR(1.19H4) (Homo sapiens, UniProt P07550, INS20HHHH); assay: Fluorescence Ca2+ imaging; format: cell-based; details: 1 µM MAC(β2AR, O4), 5 µM U73122
M1R(1.18H4) = biological target: T1, M1R(1.18H4) (Homo sapiens, UniProt P11229); format: cell-based; details: CHO cells, 1 μM Ni–NTA
T1 sequence (P11229 1-460): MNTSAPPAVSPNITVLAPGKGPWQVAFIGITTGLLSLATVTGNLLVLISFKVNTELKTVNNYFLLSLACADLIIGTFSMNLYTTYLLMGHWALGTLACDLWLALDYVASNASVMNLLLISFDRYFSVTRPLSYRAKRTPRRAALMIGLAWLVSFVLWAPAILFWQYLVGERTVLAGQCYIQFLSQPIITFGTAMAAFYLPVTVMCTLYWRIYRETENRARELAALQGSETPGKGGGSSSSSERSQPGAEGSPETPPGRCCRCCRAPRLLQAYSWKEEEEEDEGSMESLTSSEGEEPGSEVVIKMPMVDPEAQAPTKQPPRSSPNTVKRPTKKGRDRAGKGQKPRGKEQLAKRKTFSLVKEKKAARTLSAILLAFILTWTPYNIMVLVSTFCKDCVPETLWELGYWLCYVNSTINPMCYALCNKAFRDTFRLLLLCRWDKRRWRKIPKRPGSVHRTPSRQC

Row | MAC(β2AR, O4)-induced Ca2+ response in presence of PLC inhibitor (β2AR(1.19H4)) | SMILES | concentration–response on addition of Ni–NTA (M1R(1.18H4))
1 | no response was detected | COc1ccc2c(c1)CC[C@@H]1[C@@H]2CC[C@]2(C)[C@@H](NCCCCCCN3C(=O)C=CC3=O)CC[C@@H]12 [U73122] | 
2 |  | C[N+](C)(C)CC#CCOC1=NOCC1 [iperoxo] | unaffected
